From ChEMBL document CHEMBL1134890, “Preparation of oxime dual NK(1)/NK(2) antagonists with reduced NK(3) affinity” (Bioorg Med Chem Lett, 2002) come the findings set out here.

Common to all, as to format: cell-based
The target in one assay is Substance-P receptor (Homo sapiens, UniProt P25103). As to the kind of experiment: Binding affinity against recombinant human tachykinin receptor 1 in CHO cells using [3H]-Sar SP as radioligand.
The target in the next assay is T1, Substance-K receptor (Homo sapiens, UniProt P21452).
T1 sequence (P21452 whole entry): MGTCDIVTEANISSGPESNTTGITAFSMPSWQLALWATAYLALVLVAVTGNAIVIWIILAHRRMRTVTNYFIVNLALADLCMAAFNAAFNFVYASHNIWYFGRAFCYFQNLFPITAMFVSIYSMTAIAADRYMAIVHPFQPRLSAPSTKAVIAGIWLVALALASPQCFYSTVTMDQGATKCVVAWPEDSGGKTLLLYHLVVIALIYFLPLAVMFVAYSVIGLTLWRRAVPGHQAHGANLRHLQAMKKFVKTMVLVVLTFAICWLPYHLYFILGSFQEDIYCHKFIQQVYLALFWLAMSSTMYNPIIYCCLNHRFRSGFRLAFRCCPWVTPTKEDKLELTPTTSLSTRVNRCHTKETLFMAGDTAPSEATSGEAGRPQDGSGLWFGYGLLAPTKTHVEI
Nature of the assay: Binding affinity against recombinant human tachykinin receptor 2 in CHO cells using [3H]-NKA as radioligand.

The target of another assay is T2, Neuromedin-K receptor (Homo sapiens, UniProt P29371).
T2 sequence (P29371 whole entry): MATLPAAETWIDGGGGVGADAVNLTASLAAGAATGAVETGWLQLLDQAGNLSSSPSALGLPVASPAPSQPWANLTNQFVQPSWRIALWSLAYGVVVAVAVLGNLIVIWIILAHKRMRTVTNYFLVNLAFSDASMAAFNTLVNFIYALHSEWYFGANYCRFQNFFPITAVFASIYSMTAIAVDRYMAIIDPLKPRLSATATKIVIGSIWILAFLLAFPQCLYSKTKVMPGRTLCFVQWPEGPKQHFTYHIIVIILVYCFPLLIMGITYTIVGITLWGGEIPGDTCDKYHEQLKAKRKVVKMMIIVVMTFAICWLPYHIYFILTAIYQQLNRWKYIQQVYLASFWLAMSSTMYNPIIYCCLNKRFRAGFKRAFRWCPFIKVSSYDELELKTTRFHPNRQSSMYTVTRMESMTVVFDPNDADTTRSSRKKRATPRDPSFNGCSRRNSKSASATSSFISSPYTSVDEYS
As to the kind of experiment: Binding affinity against recombinant human tachykinin receptor 3 in CHO cells using [125I][MePhe]-NKB as radioligand.

Sequence of Substance-P receptor (P25103 whole entry): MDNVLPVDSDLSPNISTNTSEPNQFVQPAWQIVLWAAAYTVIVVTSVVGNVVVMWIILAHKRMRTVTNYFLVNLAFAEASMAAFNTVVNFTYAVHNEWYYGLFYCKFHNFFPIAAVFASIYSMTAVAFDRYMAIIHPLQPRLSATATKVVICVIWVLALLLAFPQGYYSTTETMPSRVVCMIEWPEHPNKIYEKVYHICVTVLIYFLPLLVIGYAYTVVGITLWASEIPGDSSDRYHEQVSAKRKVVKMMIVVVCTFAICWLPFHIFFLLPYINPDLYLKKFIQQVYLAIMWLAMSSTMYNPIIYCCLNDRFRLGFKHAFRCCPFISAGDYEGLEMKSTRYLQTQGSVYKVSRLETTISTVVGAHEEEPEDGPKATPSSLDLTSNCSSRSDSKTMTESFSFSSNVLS

On to `CO/N=C(\CN(C)C(=O)c1cc(Cl)cc(Cl)c1)[C@H](CCN1CCC(N2CCCN([C@H](CO)C(N)=O)C2=O)CC1)c1ccc(Cl)c(Cl)c1`, for which the figures for the Ki at Substance-P receptor, on Substance-K receptor and at Neuromedin-K receptor were 0.6 nM, 0.5 nM and 0.3 nM, respectively.
Regarding `CCN(C/C(=N\OC)[C@H](CCN1CCC(n2c(=O)n(CCOC)c3ccccc32)CC1)c1ccc(Cl)c(Cl)c1)C(=O)c1cc(Cl)cc(Cl)c1`, the Ki (in general, a measure of affinity in units of concentration, obtained from inhibition or displacement) on Substance-P receptor was 2 nM; on Substance-K receptor, 4 nM; at Neuromedin-K receptor it was 572 nM.
Consider `CCN(C/C(=N\OC)[C@H](CCN1CCC(n2c(=O)[nH]c3ccccc32)CC1)c1ccc(Cl)c(Cl)c1)C(=O)c1cc(Cl)cc(Cl)c1`, for which the values for the Ki on Substance-P receptor, on Substance-K receptor and on Neuromedin-K receptor were 2.5 nM, 2.6 nM and 97 nM, respectively.
In the case of `CO/N=C(\CN(C)C(=O)c1cc(Cl)cc(Cl)c1)[C@H](CCN1CCC(n2c(=O)n(C)c3ccccc32)CC1)c1ccc(Cl)c(Cl)c1`, on Neuromedin-K receptor, the Ki amounted to 20 nM.
As for `CO/N=C(\CN(C)C(=O)c1cc(Cl)cc(Cl)c1)[C@H](CCN1CCC(N2CCCN(Cc3nnn[nH]3)C2=O)CC1)c1ccc(Cl)c(Cl)c1`, the inhibition constant (Ki) on Neuromedin-K receptor was determined as 2 nM.
Take `CO/N=C(\CN(C)C(=O)c1cc(Cl)cc(Cl)c1)[C@H](CCN1CCC(N2CCCN(Cc3ccoc3)C2=O)CC1)c1ccc(Cl)c(Cl)c1`: the results for the Ki on Substance-P receptor, at Substance-K receptor and on Neuromedin-K receptor were 1.1 nM, 1.1 nM and 2.2 nM, respectively.
Take `CCN(C/C(=N\OC)[C@H](CCN1CCC(n2c(=O)n(CC(=O)O)c3ccccc32)CC1)c1ccc(Cl)c(Cl)c1)C(=O)c1cc(Cl)cc(Cl)c1`: the inhibitory constant (Ki) at Substance-P receptor is 2.4 nM; at Substance-K receptor, 5.2 nM; at Neuromedin-K receptor, 176 nM.
In the case of `CO/N=C(\CN(CCF)C(=O)c1cc(Cl)cc(Cl)c1)[C@H](CCN1CCC(n2c(O)nc3ccccc32)CC1)c1ccc(Cl)c(Cl)c1`, the inhibition constant (Ki) was 3.2 nM on Substance-P receptor, 4.9 nM on Substance-K receptor and 231 nM on Neuromedin-K receptor.
`CO/N=C(\CN(C)C(=O)c1cc(Cl)cc(Cl)c1)[C@H](CCN1CCC(N2CCCN(CC(C)(C)O)C2=O)CC1)c1ccc(Cl)c(Cl)c1`: the Ki on Substance-K receptor amounted to 0.8 nM.
For the molecule `CNC(=O)CN1CCCN(C2CCN(CC[C@@H](/C(CN(C)C(=O)c3cc(Cl)cc(Cl)c3)=N/OC)c3ccc(Cl)c(Cl)c3)CC2)C1=O`, the Ki at Substance-P receptor came to 0.9 nM; on Substance-K receptor, 1.2 nM; on Neuromedin-K receptor it was 1.3 nM.
For `CCN(C/C(=N\OC)[C@H](CCN1CCC(n2c(=O)n(Cc3ccccn3)c3ccccc32)CC1)c1ccc(Cl)c(Cl)c1)C(=O)c1cc(Cl)cc(Cl)c1`, the inhibitory constant (Ki) on Substance-P receptor came out at 2.7 nM; on Substance-K receptor, 2.8 nM; at Neuromedin-K receptor it was 312 nM.
Turning to `CO/N=C(\CN(C(=O)c1cc(Cl)cc(Cl)c1)C1CC1)[C@H](CCN1CCC(n2c(O)nc3ccccc32)CC1)c1ccc(Cl)c(Cl)c1`, the Ki is 157 nM on Substance-P receptor, 2.5 nM on Substance-K receptor and 103 nM at Neuromedin-K receptor.
As to `CO/N=C(\CN(CCF)C(=O)c1cc(Cl)cc(Cl)c1)[C@H](CCN1CCC(n2c(=O)n(CC(=O)O)c3ccccc32)CC1)c1ccc(Cl)c(Cl)c1`, the results for the Ki on Substance-P receptor, on Substance-K receptor and on Neuromedin-K receptor were 1.2 nM, 3.1 nM and 304 nM, respectively.
Regarding `CO/N=C(\CN(C)C(=O)c1cc(Cl)cc(Cl)c1)[C@H](CCN1CCC(N2CCCN(CC(=N)NO)C2=O)CC1)c1ccc(Cl)c(Cl)c1`, the Ki came to 0.6 nM at Substance-P receptor, 0.8 nM on Substance-K receptor and 0.5 nM on Neuromedin-K receptor.
`CCNC(=O)Cn1c(=O)n(C2CCN(CC[C@@H](/C(CN(CC)C(=O)c3cc(Cl)cc(Cl)c3)=N/OC)c3ccc(Cl)c(Cl)c3)CC2)c2ccccc21`: the results for the Ki at Substance-P receptor, on Substance-K receptor and at Neuromedin-K receptor were 3 nM, 3.6 nM and 281 nM, respectively.
Turning to `CO/N=C(\CN(C)C(=O)c1cc(Cl)cc(Cl)c1)[C@H](CCN1CCC(N2CCCN(N3CCOCC3)C2=O)CC1)c1ccc(Cl)c(Cl)c1`, the values for the Ki at Substance-P receptor, on Substance-K receptor and on Neuromedin-K receptor were 0.8 nM, 0.9 nM and 0.5 nM, respectively.
As to `CO/N=C(\CN(C)C(=O)c1cc(Cl)cc(Cl)c1)[C@H](CCN1CCC(N2CCCN(C(C)(C)C(N)=O)C2=O)CC1)c1ccc(Cl)c(Cl)c1`, the Ki at Substance-P receptor is 0.8 nM; on Substance-K receptor it was 0.4 nM; at Neuromedin-K receptor it was 0.3 nM.
As for `CO/N=C(\CN(C)C(=O)c1cc(Cl)cc(Cl)c1)[C@H](CCN1CCC(n2c(=O)[nH]c3ccccc32)CC1)c1ccc(Cl)c(Cl)c1`, the Ki on Neuromedin-K receptor worked out at 10 nM.
On to `CCN(C/C(=N\OC)[C@H](CCN1CCC(n2c(=O)n(CC(=O)NCCOC)c3ccccc32)CC1)c1ccc(Cl)c(Cl)c1)C(=O)c1cc(Cl)cc(Cl)c1`, for which the Ki on Substance-P receptor was determined as 1.9 nM; on Substance-K receptor it was 4.1 nM; at Neuromedin-K receptor, 945 nM.
On to `CO/N=C(\CN(C)C(=O)c1cc(Cl)cc(Cl)c1)[C@H](CCN1CCC(N2CCCN(CC(=O)OCc3ccccc3)C2=O)CC1)c1ccc(Cl)c(Cl)c1`, for which the results for the Ki at Substance-P receptor, on Substance-K receptor and on Neuromedin-K receptor were 1 nM, 1.2 nM and 11.8 nM, respectively.
In the case of `CO/N=C(\CN(C)C(=O)c1cc(Cl)cc(Cl)c1)[C@H](CCN1CCC(N2CCCN(C)C2=O)CC1)c1ccc(Cl)c(Cl)c1`, the Ki stood at 0.4 nM at Substance-P receptor, 0.7 nM on Substance-K receptor and 0.8 nM on Neuromedin-K receptor.
Take `CCOC(=O)[C@@H](Cc1ccc(O)cc1)N1CCCN(C2CCN(CC[C@@H](/C(CN(C)C(=O)c3cc(Cl)cc(Cl)c3)=N/OC)c3ccc(Cl)c(Cl)c3)CC2)C1=O`: the Ki on Substance-P receptor worked out at 1.6 nM; at Substance-K receptor it was 1.2 nM; at Neuromedin-K receptor it was 10.9 nM.
With `CCN(C/C(=N\OC)[C@H](CCN1CCC(n2c(=O)n(CC#N)c3ccccc32)CC1)c1ccc(Cl)c(Cl)c1)C(=O)c1cc(Cl)cc(Cl)c1`, the Ki on Substance-P receptor was determined as 2.3 nM; on Substance-K receptor, 2.5 nM; on Neuromedin-K receptor it was 674 nM.
As for `CO/N=C(\CN(C)C(=O)c1cc(Cl)cc(Cl)c1)[C@H](CCN1CCC(N2CCCN(C(C)C)C2=O)CC1)c1ccc(Cl)c(Cl)c1`, the Ki at Substance-P receptor was determined as 0.9 nM; on Substance-K receptor, 0.8 nM; on Neuromedin-K receptor, 0.6 nM.
Take `CCN(C/C(=N\OC)[C@H](CCN1CCC(n2c(=O)n(CC(N)=O)c3ccccc32)CC1)c1ccc(Cl)c(Cl)c1)C(=O)c1cc(Cl)cc(Cl)c1`: the inhibitory constant (Ki) amounted to 2.4 nM at Substance-P receptor, 4.8 nM on Substance-K receptor and 167 nM at Neuromedin-K receptor.
For `CO/N=C(\CN(C)C(=O)c1cc(Cl)cc(Cl)c1)[C@H](CCN1CCC(N2CCCN(Cc3ccccn3)C2=O)CC1)c1ccc(Cl)c(Cl)c1` the same measures were 0.7 nM, 0.7 nM and 0.8 nM.
For `CO/N=C(\CN(C)C(=O)c1cc(Cl)cc(Cl)c1)[C@H](CCN1CCC(N2CCCN(Cc3ccsc3)C2=O)CC1)c1ccc(Cl)c(Cl)c1` the same measures were 2.4 nM, 1.2 nM and 3.2 nM.
Regarding `CO/N=C(\CN(C)C(=O)c1cc(Cl)cc(Cl)c1)[C@H](CCN1CCC(N2CCCN(c3ccccn3)C2=O)CC1)c1ccc(Cl)c(Cl)c1`, the Ki at Substance-P receptor came to 1.9 nM; on Substance-K receptor, 0.5 nM; on Neuromedin-K receptor it was 0.5 nM.
As to `CNC(=O)C[C@H]1CCCN(C2CCN(CC[C@@H](/C(CN(C)C(=O)c3cc(Cl)cc(Cl)c3)=N/OC)c3ccc(Cl)c(Cl)c3)CC2)C1=O`, the values for the Ki on Substance-P receptor, on Substance-K receptor and at Neuromedin-K receptor were 1.3 nM, 0.4 nM and 0.3 nM, respectively.
Take `CO/N=C(\CN(C)C(=O)c1cc(Cl)cc(Cl)c1)[C@H](CCN1CCC(n2c(=O)n(CC(=O)O)c3ccccc32)CC1)c1ccc(Cl)c(Cl)c1`: the Ki came to 1.3 nM on Substance-P receptor, 1.7 nM on Substance-K receptor and 11 nM on Neuromedin-K receptor.
For `CO/N=C(\CN(C)C(=O)c1cc(Cl)cc(Cl)c1)[C@H](CCN1CCC(N2CCCN(O)C2=O)CC1)c1ccc(Cl)c(Cl)c1` the same measures were 1 nM, 0.7 nM and 0.7 nM.
Consider `CO/N=C(\CN(C)C(=O)c1cc(Cl)cc(Cl)c1)[C@H](CCN1CCC(N2CCCN(CC(N)=O)C2=O)CC1)c1ccc(Cl)c(Cl)c1`, for which the Ki is 0.3 nM at Substance-P receptor, 0.2 nM on Substance-K receptor and 0.4 nM on Neuromedin-K receptor.
For `CO/N=C(\CN(C)C(=O)c1cc(Cl)cc(Cl)c1)[C@H](CCN1CCC(n2c(=O)n(CC(=O)OC)c3ccccc32)CC1)c1ccc(Cl)c(Cl)c1`, the inhibitory constant (Ki) amounted to 1.3 nM on Substance-P receptor, 1.8 nM at Substance-K receptor and 29 nM at Neuromedin-K receptor.
In the case of `CO/N=C(\CN(C)C(=O)c1cc(Cl)cc(Cl)c1)[C@H](CCN1CCC(N2CCCN(CCNS(C)(=O)=O)C2=O)CC1)c1ccc(Cl)c(Cl)c1`, the figures for the Ki at Substance-P receptor, on Substance-K receptor and at Neuromedin-K receptor were 0.6 nM, 0.5 nM and 0.4 nM, respectively.
